Results on 21 molecules are retold here after PubChem BioAssay (NCI).

Test systems include K-562 leukemia; UACC-257 melanoma; IGROV1 ovarian; MDA-MB-231 breast; RXF 393 renal; BT-549 breast; NCI-H522 lung; MCF7 breast; HCT-116 colon; MDA-N.
Test in all cases: inhibition of tumour cell growth, NCI panel, 48 h

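1) Cells in 96-well plates. 2) Compound, 48 h, 5 concentrations. 3) Linear interpolation between surrounding doses. 4) Unreached endpoint = highest concentration. TGI marks complete inhibition of growth.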

For the molecule `CCCCCCCCCCCCCCCC(=O)OCC(COP(=O)(O)OCCNC(=O)CCSSc1ccccn1)OC(=O)CCCCCCCCCCCCCCC` (stereo not given), the TGI in the assay with K-562 leukemia, with UACC-257 melanoma, in the assay on IGROV1 ovarian, with MDA-MB-231 breast, in the assay with RXF 393 renal and in the assay on BT-549 breast was greater than 100 µM in each case. Besides, the TGI with NCI-H522 lung, in the assay on MCF7 breast, in the assay on HCT-116 colon and with MDA-N was greater than 100 µM each time.
As to `O=C(c1ccccc1)n1c2ccc(Br)cc2c2nc3ccccc3nc21`, the TGI in the assay on K-562 leukemia, in the assay with UACC-257 melanoma, with IGROV1 ovarian, in the assay on MDA-MB-231 breast, in the assay with RXF 393 renal and with BT-549 breast was greater than 100 µM throughout. The TGI with NCI-H522 lung, in the assay on MCF7 breast, in the assay with HCT-116 colon and with MDA-N was greater than 100 µM in each case.
As to `CCCCCNC(=O)OC1CCn2c1nc1c2C(=O)C(C)=C(N2CC2)C1=O` (stereo not given), the TGI with K-562 leukemia came out at 7.75 µM; in the assay on UACC-257 melanoma it was 3.22 µM; in the assay with IGROV1 ovarian, 3.43 µM; in the assay with MDA-MB-231 breast, 5.31 µM; in the assay on RXF 393 renal, 1.82 µM; with BT-549 breast it was 3.08 µM. Further, the TGI turned out to be 3.4 µM in the assay with NCI-H522 lung, 2.21 µM with MCF7 breast, 4.33 µM in the assay on HCT-116 colon and 2.88 µM with MDA-N.
Take `N=c1sc(N2CCOCC2)nn1CC(=O)c1ccccc1`: the TGI in the assay with K-562 leukemia, in the assay on UACC-257 melanoma, in the assay on IGROV1 ovarian, in the assay with MDA-MB-231 breast, in the assay with RXF 393 renal and in the assay with BT-549 breast was greater than 100 µM in each case. In addition, the TGI with NCI-H522 lung, in the assay on MCF7 breast, in the assay with HCT-116 colon and with MDA-N was greater than 100 µM throughout.
Consider `CCN(CC)CCCNc1nnc(C)c2[nH]c3ccccc3c12`, for which the TGI in the assay on K-562 leukemia was greater than 100 µM; with UACC-257 melanoma, 31.8 µM; in the assay on IGROV1 ovarian, 44.3 µM; in the assay with MDA-MB-231 breast it was 39.5 µM; with RXF 393 renal, 38.8 µM; with BT-549 breast, 68 µM. For the same molecule, the TGI in the assay with NCI-H522 lung was 21.3 µM; with MCF7 breast, greater than 100 µM; in the assay on HCT-116 colon, 69.4 µM; in the assay on MDA-N, 29.2 µM.
Turning to `CN1Cc2c(ccc3c2OCO3)[C@@H]2[C@H](O)Cc3cc4c(cc3[C@@H]21)OCO4`, the TGI in the assay with K-562 leukemia is greater than 100 µM; with UACC-257 melanoma, greater than 100 µM; with IGROV1 ovarian it was greater than 100 µM; in the assay with MDA-MB-231 breast, 24.6 µM; in the assay on RXF 393 renal, greater than 26.2 µM; in the assay with BT-549 breast, greater than 100 µM. Also, the TGI is 14.6 µM in the assay on NCI-H522 lung, greater than 48.7 µM with MCF7 breast, greater than 44.7 µM in the assay with HCT-116 colon and 1.46 µM with MDA-N.
Turning to `FC(F)(Sc1nc2ccccc2[nH]1)c1nc2ccccc2o1`, the TGI with K-562 leukemia, in the assay on UACC-257 melanoma, in the assay on IGROV1 ovarian, with MDA-MB-231 breast, with RXF 393 renal and with BT-549 breast was greater than 100 µM in each case. Moreover, the TGI with NCI-H522 lung is 31.8 µM; with MCF7 breast, greater than 100 µM; in the assay on HCT-116 colon it was greater than 100 µM; in the assay on MDA-N, greater than 100 µM.
On to `O=C1Cc2c(-c3ccccc3)cc(-c3ccc(Cl)cc3)nc2-c2ccccc2N1`, for which the TGI with K-562 leukemia is greater than 100 µM; in the assay with UACC-257 melanoma, greater than 58.2 µM; in the assay on IGROV1 ovarian, 35.9 µM; in the assay on MDA-MB-231 breast, 19.2 µM; in the assay with RXF 393 renal it was 17.3 µM; in the assay with BT-549 breast, 40.2 µM. Besides, the TGI in the assay with NCI-H522 lung was 12.8 µM; with MCF7 breast it was greater than 72.2 µM; in the assay with HCT-116 colon, 11.9 µM; in the assay on MDA-N, 35.4 µM.
On to `Clc1cc2ncn(C3CCCO3)c2cc1Cl` (stereo not given), for which the TGI is greater than 100 µM in the assay on K-562 leukemia; greater than 100 µM in the assay with UACC-257 melanoma; 69.5 µM in the assay with IGROV1 ovarian; greater than 100 µM with MDA-MB-231 breast; greater than 100 µM in the assay on RXF 393 renal; 86.4 µM with BT-549 breast. The TGI in the assay with NCI-H522 lung, in the assay with MCF7 breast, in the assay on HCT-116 colon and in the assay with MDA-N was greater than 100 µM throughout.
Consider `CC(C)S1=C2C(=O)CC(C)(C)CC2=Nc2ccccc21` (stereo not given), for which the TGI in the assay on K-562 leukemia, in the assay with UACC-257 melanoma, in the assay with IGROV1 ovarian, with MDA-MB-231 breast, in the assay with RXF 393 renal and with BT-549 breast was greater than 100 µM in each case. Also, the TGI in the assay with NCI-H522 lung, with MCF7 breast, in the assay with HCT-116 colon and in the assay on MDA-N was greater than 100 µM each time.
`COc1ccc(OC)c2c(Nc3ccc(S(=O)(=O)O)c4cc(S(=O)(=O)O)cc(S(=O)(=O)O)c34)cc(C)nc12`: the TGI with K-562 leukemia, in the assay on UACC-257 melanoma, with IGROV1 ovarian, in the assay with MDA-MB-231 breast, in the assay with RXF 393 renal and with BT-549 breast was greater than 100 µM in each case. Further, the TGI in the assay with NCI-H522 lung, in the assay with MCF7 breast, in the assay on HCT-116 colon and in the assay with MDA-N was greater than 100 µM throughout.
In the case of `Cc1nnc(N)s/c1=N/O`, the TGI in the assay with K-562 leukemia, with UACC-257 melanoma, in the assay with IGROV1 ovarian, in the assay on MDA-MB-231 breast, in the assay on RXF 393 renal and with BT-549 breast was greater than 100 µM each time. For the same molecule, the TGI in the assay with NCI-H522 lung, in the assay on MCF7 breast, in the assay with HCT-116 colon and with MDA-N was greater than 100 µM in each case.
With `COC(=O)C1CCC(=S)N1C(C)=O` (stereo not given), the TGI with K-562 leukemia, with UACC-257 melanoma, in the assay on IGROV1 ovarian, in the assay with MDA-MB-231 breast, with RXF 393 renal and in the assay with BT-549 breast was greater than 100 µM throughout. The TGI with NCI-H522 lung, in the assay on MCF7 breast, in the assay on HCT-116 colon and with MDA-N was greater than 100 µM in each case.
For the molecule `COc1cc(CC2C(=O)OCC2Cc2ccc(OC)c(OC)c2)ccc1O` (stereo not given), the TGI with K-562 leukemia, in the assay on UACC-257 melanoma, with IGROV1 ovarian, in the assay on MDA-MB-231 breast, in the assay with RXF 393 renal and in the assay with BT-549 breast was greater than 100 µM throughout. Also, the TGI with NCI-H522 lung, in the assay with MCF7 breast, in the assay on HCT-116 colon and in the assay with MDA-N was greater than 100 µM each time.
Consider `COc1ccc(/[N+]([O-])=C/c2ccccc2OC(=S)S)cc1`, for which the TGI is greater than 100 µM with K-562 leukemia; 97.1 µM in the assay with UACC-257 melanoma; greater than 100 µM with IGROV1 ovarian; greater than 100 µM in the assay with MDA-MB-231 breast; greater than 100 µM in the assay on RXF 393 renal; 66.6 µM in the assay on BT-549 breast. Further, the TGI in the assay with NCI-H522 lung is 74 µM; with MCF7 breast, greater than 100 µM; in the assay with HCT-116 colon it was 73.5 µM; in the assay on MDA-N, 63.4 µM.
In the case of `CC(=O)OC1C(C)OC(OC2C[C@](O)(C(C)=O)Cc3c(O)c4c(c(O)c32)C(=O)c2ccccc2C4=O)C(F)C1OC(C)=O` (stereo not given in full), the TGI in the assay with K-562 leukemia was greater than 100 µM; with UACC-257 melanoma, 9.02 µM; in the assay on IGROV1 ovarian it was 9.34 µM; in the assay with MDA-MB-231 breast, 10.7 µM; in the assay on RXF 393 renal it was 18.9 µM; in the assay with BT-549 breast it was 33.2 µM. The TGI in the assay on NCI-H522 lung was 4.29 µM; in the assay on MCF7 breast, greater than 20.2 µM; in the assay on HCT-116 colon, 2.84 µM; in the assay on MDA-N, greater than 100 µM.
As for `O=C1c2sccc2C(=O)c2c(CO)csc21`, the TGI is greater than 100 µM in the assay with K-562 leukemia; 5.24 µM with UACC-257 melanoma; 17.7 µM with IGROV1 ovarian; 50.1 µM with MDA-MB-231 breast; 3.22 µM in the assay on RXF 393 renal; 12 µM in the assay with BT-549 breast. Moreover, the TGI was 13.6 µM with NCI-H522 lung, 18.9 µM in the assay with MCF7 breast, 9.47 µM with HCT-116 colon and 3.16 µM in the assay with MDA-N.
Consider `CCc1n[nH]c(=O)n1-c1ccncc1`, for which the TGI in the assay on K-562 leukemia, in the assay with UACC-257 melanoma, with IGROV1 ovarian, in the assay on MDA-MB-231 breast, with RXF 393 renal and with BT-549 breast was greater than 100 µM throughout. For the same molecule, the TGI in the assay on NCI-H522 lung, in the assay with MCF7 breast, in the assay on HCT-116 colon and in the assay on MDA-N was greater than 100 µM each time.
With `CNC(=O)N(C)C(=O)c1ccccc1C(=O)N(C)C(=O)NC`, the TGI in the assay on K-562 leukemia, in the assay with UACC-257 melanoma, in the assay on IGROV1 ovarian, in the assay with MDA-MB-231 breast, in the assay with RXF 393 renal and in the assay with BT-549 breast was greater than 10 µM throughout. Besides, the TGI with NCI-H522 lung, in the assay on MCF7 breast, in the assay with HCT-116 colon and in the assay on MDA-N was greater than 10 µM each time.
For the molecule `O=P1(C(O)c2ccccc2)N(Cc2ccccc2)[C@@H]2CCCC[C@H]2N1Cc1ccccc1` (stereo not given in full), the TGI in the assay on K-562 leukemia was greater than 100 µM; in the assay with UACC-257 melanoma, 56 µM; with IGROV1 ovarian, 49.9 µM; in the assay on MDA-MB-231 breast, 53.8 µM; in the assay on RXF 393 renal, greater than 100 µM; in the assay with BT-549 breast, greater than 100 µM. Further, the TGI was 63.6 µM in the assay on NCI-H522 lung, greater than 100 µM in the assay with MCF7 breast, greater than 100 µM in the assay on HCT-116 colon and greater than 100 µM in the assay with MDA-N.
In the case of `CC(=O)Oc1cc(OC(C)=O)c2c(c1C)CC[C@@H]1[C@@H]2CC[C@]2(C)[C@@H](OC(C)=O)CC[C@@H]12`, the TGI with K-562 leukemia amounted to 89.2 µM; with UACC-257 melanoma, 32 µM; with IGROV1 ovarian, 34.4 µM; with MDA-MB-231 breast, 30.5 µM; in the assay on RXF 393 renal, 27.7 µM; with BT-549 breast, 34.1 µM. In addition, the TGI in the assay on NCI-H522 lung amounted to 32 µM; with MCF7 breast, 34.1 µM; in the assay with HCT-116 colon it was 29.2 µM; in the assay with MDA-N, 32.9 µM.
